The target in the experiment is T1, Aminopeptidase N (Escherichia coli K-12, UniProt P04825).
T1 sequence (P04825 whole entry): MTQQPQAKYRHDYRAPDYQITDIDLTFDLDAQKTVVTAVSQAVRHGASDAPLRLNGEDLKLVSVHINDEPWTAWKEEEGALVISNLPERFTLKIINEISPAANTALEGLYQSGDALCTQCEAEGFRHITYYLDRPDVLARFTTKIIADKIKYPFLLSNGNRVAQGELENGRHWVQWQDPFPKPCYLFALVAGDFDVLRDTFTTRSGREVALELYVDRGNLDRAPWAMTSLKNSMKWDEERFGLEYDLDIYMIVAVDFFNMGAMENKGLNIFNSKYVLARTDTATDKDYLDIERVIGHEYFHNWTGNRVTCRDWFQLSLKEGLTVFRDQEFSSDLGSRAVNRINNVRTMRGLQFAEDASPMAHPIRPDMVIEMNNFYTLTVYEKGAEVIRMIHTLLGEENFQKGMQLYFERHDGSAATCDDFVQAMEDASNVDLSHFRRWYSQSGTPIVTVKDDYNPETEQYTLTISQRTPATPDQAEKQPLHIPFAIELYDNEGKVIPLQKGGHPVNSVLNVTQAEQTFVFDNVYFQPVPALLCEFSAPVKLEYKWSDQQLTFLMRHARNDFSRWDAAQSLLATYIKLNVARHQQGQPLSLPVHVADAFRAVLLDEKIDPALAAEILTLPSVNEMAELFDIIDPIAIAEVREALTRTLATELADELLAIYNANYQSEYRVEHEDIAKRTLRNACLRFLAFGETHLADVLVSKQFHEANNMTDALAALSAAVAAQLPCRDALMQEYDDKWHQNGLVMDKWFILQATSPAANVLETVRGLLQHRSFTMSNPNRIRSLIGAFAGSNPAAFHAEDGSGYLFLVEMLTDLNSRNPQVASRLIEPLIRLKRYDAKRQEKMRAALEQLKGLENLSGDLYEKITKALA
Nature of the experiment: Inhibitory activity against aminopeptidase N (PepN) from Escherichia coli.
Regarding `CC(NS(=O)(=O)C(C)N)C(=O)O` (stereo not given), the Ki is greater than 300 µM.
With `CCCCCCCCC(CP(=O)(O)C(C)N)C(=O)O` (stereo not given) the figure was 1.1 µM; with `CC(OS(=O)(=O)C(C)N)C(=O)O` (stereo not given), greater than 300 µM.
Next, `C/C(=C\P(=O)(O)C(C)N)C(=O)O` (stereo not given): 1 µM.
Next, `CC(CP(=O)(O)C(C)N)C(=O)O` (stereo not given): 10 µM.

A word on the Ki: it is a measure of affinity in units of concentration, obtained from inhibition or displacement.

These data come from ChEMBL document CHEMBL1141201, “Phosphinate, sulfonate, and sulfonamidate dipeptides as potential inhibitors of Escherichia coli aminopeptidase N” (Bioorg Med Chem Lett, 2005).
